Holding throughout (format): cell-based
The target in assay [1] is T1, Nav1.3 sodium channel (Homo sapiens, UniProt Q9NY46). Description: Na+ depletion/repletion persistent current assay with single-wavelength membrane potential dye on FLIPR-Tetra.
The target in assay [2] is T1, Nav1.3 sodium channel. Description: cell-based. The following applies: for IC50: read-out: IC50 obtained using patch-clamp. (In patch-clamp work, channel activity is measured electrically.)
In assay [3] the target is T1, Nav1.3 sodium channel. Nature of the assay: Persistent sodium current screening assay using FRET dyes on VIPR (Na+-dependent depolarization). The conditions noted are these: tetracaine 10 μM; HEK-Nav 1.3 cells; FIG. 10.
In another assay the test system is HEK-Nav 1.3 cells. Description: Counter-screen: K+-dependent depolarization (VIPR FRET). The following applies: tetracaine 10 μM; K+ final 80 mM; FIG. 10. On the technique in general: A counterscreen serves to expose hits that act by an unwanted route or on another target.

Entries after “also recorded” stand apart in the source; their conditions may differ.

T1 sequence (Q9NY46 whole entry): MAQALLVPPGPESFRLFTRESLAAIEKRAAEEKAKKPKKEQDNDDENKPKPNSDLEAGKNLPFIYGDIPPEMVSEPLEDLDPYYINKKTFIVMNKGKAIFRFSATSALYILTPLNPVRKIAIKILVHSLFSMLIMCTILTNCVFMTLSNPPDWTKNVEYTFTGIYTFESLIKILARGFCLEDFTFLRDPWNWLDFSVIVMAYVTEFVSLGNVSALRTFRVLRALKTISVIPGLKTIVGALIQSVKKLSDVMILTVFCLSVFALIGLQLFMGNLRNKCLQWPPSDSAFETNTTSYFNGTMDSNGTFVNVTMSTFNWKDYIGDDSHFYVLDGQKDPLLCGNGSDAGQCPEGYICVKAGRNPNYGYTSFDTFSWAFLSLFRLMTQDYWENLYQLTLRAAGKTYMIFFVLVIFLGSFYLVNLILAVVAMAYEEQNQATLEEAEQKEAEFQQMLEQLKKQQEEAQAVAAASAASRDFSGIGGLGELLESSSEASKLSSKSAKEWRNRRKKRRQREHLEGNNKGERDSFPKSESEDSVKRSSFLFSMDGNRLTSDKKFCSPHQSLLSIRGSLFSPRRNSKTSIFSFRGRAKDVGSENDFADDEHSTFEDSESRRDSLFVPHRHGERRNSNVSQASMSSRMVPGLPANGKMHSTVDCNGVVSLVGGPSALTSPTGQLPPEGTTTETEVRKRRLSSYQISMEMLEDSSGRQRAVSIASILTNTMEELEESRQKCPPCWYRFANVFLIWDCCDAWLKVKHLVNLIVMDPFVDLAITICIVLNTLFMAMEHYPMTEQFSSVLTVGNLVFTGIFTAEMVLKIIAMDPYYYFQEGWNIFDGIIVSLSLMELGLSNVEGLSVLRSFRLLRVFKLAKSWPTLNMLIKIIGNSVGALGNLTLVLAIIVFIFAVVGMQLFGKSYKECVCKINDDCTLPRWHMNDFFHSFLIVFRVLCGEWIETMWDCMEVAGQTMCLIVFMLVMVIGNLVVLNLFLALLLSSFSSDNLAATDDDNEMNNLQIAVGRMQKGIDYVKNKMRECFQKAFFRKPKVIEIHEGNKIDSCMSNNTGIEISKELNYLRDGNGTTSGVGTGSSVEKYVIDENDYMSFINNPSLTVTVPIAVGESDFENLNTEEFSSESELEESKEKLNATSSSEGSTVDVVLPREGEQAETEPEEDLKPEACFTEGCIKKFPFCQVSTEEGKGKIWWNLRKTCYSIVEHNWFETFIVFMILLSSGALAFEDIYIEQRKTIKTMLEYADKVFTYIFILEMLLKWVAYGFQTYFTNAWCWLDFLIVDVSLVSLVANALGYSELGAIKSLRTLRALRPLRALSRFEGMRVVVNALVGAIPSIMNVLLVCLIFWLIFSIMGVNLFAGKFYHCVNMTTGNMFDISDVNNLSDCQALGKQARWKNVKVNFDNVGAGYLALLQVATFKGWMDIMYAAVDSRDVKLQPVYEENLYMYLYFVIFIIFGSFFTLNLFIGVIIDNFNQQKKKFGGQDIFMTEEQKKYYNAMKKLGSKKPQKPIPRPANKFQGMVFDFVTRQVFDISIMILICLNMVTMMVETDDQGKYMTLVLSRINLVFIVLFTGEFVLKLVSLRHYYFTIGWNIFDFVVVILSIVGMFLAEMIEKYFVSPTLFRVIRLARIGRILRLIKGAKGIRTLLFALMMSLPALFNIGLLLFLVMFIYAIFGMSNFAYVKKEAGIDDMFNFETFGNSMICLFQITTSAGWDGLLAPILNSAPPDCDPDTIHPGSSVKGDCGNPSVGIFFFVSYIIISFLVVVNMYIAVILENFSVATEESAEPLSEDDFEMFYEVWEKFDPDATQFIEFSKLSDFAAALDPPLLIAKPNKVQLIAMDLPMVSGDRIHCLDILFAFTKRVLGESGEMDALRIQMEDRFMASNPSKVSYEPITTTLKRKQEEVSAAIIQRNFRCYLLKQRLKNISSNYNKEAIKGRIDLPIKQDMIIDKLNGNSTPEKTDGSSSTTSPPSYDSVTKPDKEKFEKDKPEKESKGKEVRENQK

The term IC50 denotes the concentration that inhibits the measured activity by half. Turning to `CCN(CC)CC(=O)Nc1c(C)cccc1C` [Lidocaine], the IC50 on Nav1.3 sodium channel [1] is 32 µM; on Nav1.3 sodium channel [2] (comparison values for the persistent current assay), 90 µM.

As to `CCCCNc1ccc(C(=O)OCCN(C)C)cc1` [Tetracaine], the “Na+-dependent change in Rf/Ri (Na+-dependent depolarization)” value on Nav1.3 sodium channel [3] was “inhibited”. In addition, in the assay on HEK-Nav 1.3 cells, the “K+-dependent change in Rf/Ri (K+-dependent depolarization)” value is recorded as “not”.

Take TTX: on Nav1.3 sodium channel [1], the “Na+ channel dependent component of the fluorescence response” value is listed as “blocked; also recorded: the initial response is lost”. The IC50 on Nav1.3 sodium channel [1] (read-out: IC50 persistent sodium current, FLIPR-Tetra assay) came to 0.005 µM. Besides, on Nav1.3 sodium channel [2], the “Block of persistent current” value is on record as “completely blocked”, the “Block of transient current” value is given as “completely blocked” and the IC50 is 0.005 µM.

Source of the values: patent publication US7754440B2 (priority 2001, dated 2010).
